In paper PMC4603303, “Activity of Novel Synthetic Peptides against Candida albicans” (Scientific Reports, 2015):
Read-outs that look alike come from different tables or passages of the source. Ends that are not written are not given here.

Tests used:
Candida albicans SC 5314 = assay: MIC, broth microdilution (CLSI M27-A2); assay type: cell-based
Experimental: (§1) C. albicans strains SC5314 and ATCC 90028, C. krusei ATCC 6258 and C. parapsilosis ATCC 22019 were used in the study. The strains were stored at −80°C in nutrient broth supplemented with 2.0% glycerol stock. Prior to experimentation, each strain was streaked for single colonies on Sabouraud Dextrose (SDA) agar plates and incubated overnight at 37°C.
(§2) Antifungal activity of the designed peptides was determined according to a standardized broth microdilution method (Clinical and Laboratory Standards Institute (CLSI) document M27-A2). Briefly, the yeast colonies from 24- hour-old cultures of Candida species were picked and resuspended in 5 mL of sterile 0.145 mol/L saline and adjusted to cell density of 1 × 10^6 to 5 × 10^6 cells/ml. The yeast stock suspension was then diluted to obtain a starting inoculum of 5.0 × 10^2 to 2.5 × 10^3 cells/ml. […] The drugs were dissolved in DMSO and prepared to a stock concentration of 25 mg/L and 50 mg/L, respectively. […] 100 μL of standardized yeast suspension was then added to each well. Plates were incubated for 48 hours at 37°C. The minimum inhibitory concentration (MIC) was defined as the lowest concentration that inhibited 90% growth of Candida species. The MICs were determined three times and each time in duplicate.

[1] = test system: Candida albicans ATCC 90028; assay: MIC, broth microdilution (CLSI M27-A2); assay type: cell-based
Experimental: as §1, §2

Candida krusei ATCC 6258 = assay: MIC, broth microdilution (CLSI M27-A2); assay type: cell-based
Experimental: as §1, §2

[2] = test system: Candida parapsilosis ATCC 22019; assay: MIC, broth microdilution (CLSI M27-A2); assay type: cell-based
Experimental: as §1, §2

VK2/E6E7 cell line = assay: cells
Experimental: (§3) The human normal vaginal epithelial cell line VK2/E6E7 (ATCC® CRL-2616™) and human normal esophagus epithelial cell line Het-1A (ATCC® CRL-2692™) were used for cytotoxicity testing. VK2/E6E7 cell line was grown in Keratinocyte-Serum Free medium (GIBCO-BRL 17005-042) supplemented with 0.1 ng/ml human recombinant EGF, 0.05 mg/ml bovine pituitary extract, and 44.1 mg/L calcium chloride. […] Cell viability was measured by using CellTiter 96® Aqueous Non-Radioactive Cell Proliferation Assay (Promega, USA) and the colourimetric changes were determined at 490 nm using a microplate reader. […] Results were recorded by averaging three repeated experiments and each experiment was performed in duplicate.

Het-1A cell line = assay: cells
Experimental: as §3

C. albicans SC5314 = assay: Time killing assay; assay type: cell-based, Candida albicans
Experimental: A fungal suspension was adjusted to a 0.5 McFarland turbidity standard with cell density of 1 × 10^6 to 5 × 10^6 cells/ml. 100 μL of adjusted yeast suspension was exposed to 900 μL of RPMI medium containing peptide, yielding a starting inoculum of approximately 10^5 cells/ml. The solutions were incubated at 37°C with agitation. At the predetermined time interval of 0, 1, 2, 4 and 6 hours, 10 μL or 30 μL of the samples were removed, serially diluted with phosphate-buffered saline (PBS) and plated on SDA plates to allow colony counts after 24 hours of incubation. Controls for yeast growth and antifungal agents were also performed. The lower limit of accurate and reproducible quantitation was 100 CFU/ml. Results were obtained from three independent experiments.

Candida strains = assay: MIC, broth microdilution, range stated over several Candida strains; assay type: cell-based, Candida spp.
Experimental: as §1, §2

human erythrocytes = assay: Haemolytic assay; assay type: cell-based
Experimental: Freshly collected human blood with heparin was centrifuged to remove the buffy coat. The erythrocytes were washed three times with PBS, centrifuged for 10 min at 2000 rpm at 10°C, and resuspended in PBS to 4% (vol/vol). […] PBS and 0.1% Triton X-100 were used as agents to induce 0 and 100% haemolysis, respectively. Plates were incubated for 1 hour at 37°C and centrifuged at 2000 rpm for 10 min. The supernatant (100 μL) was transferred to a 96-well flat-bottomed polystyrene plate, and the release of haemoglobin was monitored by measuring the absorbance at 560 nm using a microplate reader. Results were repeated three times and each time in duplicate. The percentage of haemolysis was calculated using the following formula: [drawing 2] where Ap and A100 represent the absorbance of erythrocytes treated with peptide and 0.1% Triton X-100. A0 is the absorbance of erythrocytes without treatment.

Substance	Minimum Inhibitory Concentration (MIC) (Candida albicans SC 5314; SC 5314, 48 h) [µg/mL]	Minimum Inhibitory Concentration (MIC) ([1]; ATCC 90028, 48 h) [µg/mL]	Minimum Inhibitory Concentration (MIC) (Candida krusei ATCC 6258; ATCC 6258, 48 h) [µg/mL]	Minimum Inhibitory Concentration (MIC) ([2]; ATCC 22019, 48 h) [µg/mL]	IC50 (VK2/E6E7 cell line; 24 h) [µg/mL]	IC50 (VK2/E6E7 cell line; 48 h) [µg/mL]	IC50 (VK2/E6E7 cell line; 72 h) [µg/mL]	IC50 (Het-1A cell line; 24 h) [µg/mL]	IC50 (Het-1A cell line; 48 h) [µg/mL]	IC50 (Het-1A cell line; 72 h) [µg/mL]	% killing (C. albicans SC5314; SC5314, 6 h, 2) [%]	mean log decrease in viable cells (C. albicans SC5314; SC5314, 6 h, 2) [log CFU/mL]	MIC values, range (Candida strains; 48 h) [µg/mL]	Haemolytic activity HC10 (human erythrocytes; red cells of human, 1 h) [mg/L]	Haemolytic activity HC50 (human erythrocytes; red cells of human, 1 h) [mg/L]	further results
GIWKKWIKKVVNVLKNLF-NH2 [KU1]	16	32	32	16	4.28 ± 0.60	4.71 ± 0.22	7.84 ± 1.99	3.61 ± 0.19	4.59 ± 0.26	7.27 ± 1.17	99.82	2.95 ± 0.59	16 to 32	8.07 ± 1.60	58.19 ± 2.04	–
GIWKKWIKKWLKKLKNLF-NH2 [KU4]	32	64	16	32	8.75 ± 1.04	10.55 ± 2.33	19.46 ± 4.29	9.75 ± 1.34	10.47 ± 0.50	14.53 ± 1.58	> 99.99	5.55 ± 0.08	16 to 64	49.38 ± 5.14	–	Haemolytic activity HC50 (human erythrocytes): > 256 mg/L
GIWKKWIKKWLKKLLKKLWKKG-NH2 [KABT-AMP, reference compound]	–	–	–	–	–	–	–	–	–	–	–	–	–	–	–	Minimum Inhibitory Concentration (MIC) (Candida albicans SC 5314; C. albicans SC 5314, RPMI 1640-MOPS, 48 h, 37°C, lowest concentration inhibiting 90% growth, three times in duplicate): 32 µg/mL; Minimum Inhibitory Concentration (MIC) ([1]; C. albicans ATCC 90028, RPMI 1640-MOPS, 48 h, 37°C, lowest concentration inhibiting 90% growth, three times in duplicate): 64 µg/mL; Minimum Inhibitory Concentration (MIC) (Candida krusei ATCC 6258; C. krusei ATCC 6258, RPMI 1640-MOPS, 48 h, 37°C, lowest concentration inhibiting 90% growth, three times in duplicate): 64 µg/mL; Minimum Inhibitory Concentration (MIC) ([2]; C. parapsilosis ATCC 22019, RPMI 1640-MOPS, 48 h, 37°C, lowest concentration inhibiting 90% growth, three times in duplicate): 64 µg/mL; % killing (C. albicans SC5314; 2× MIC, within 4 hours): > 99.99%; mean log decrease in viable cells (C. albicans SC5314; 2× MIC, within 4 hours, RPMI, 37°C, mean ± SD of three experiments): 5.4 ± 0.09 log CFU/mL; MIC values, range (Candida strains; range against four Candida strains (C. albicans and non-albicans species)): 32 to 64 µg/mL; Haemolytic activity HC10 (human erythrocytes; concentration causing 10% haemolysis, 1 hour, 37°C, erythrocyte suspension 4% in PBS, three times in duplicate): 4.67 ± 2.09 mg/L; Haemolytic activity HC50 (human erythrocytes; concentration causing 50% haemolysis, 1 hour, 37°C, erythrocyte suspension 4% in PBS, three times in duplicate): 81.23 ± 8.92 mg/L
GIWKKWIKKWLKVLKNLF-NH2 [KU3]	8	16	16	8	4.43 ± 0.39	5.32 ± 0.84	7.83 ± 1.41	4.33 ± 0.52	4.62 ± 0.65	6.36 ± 1.34	99.94	3.28 ± 0.30	8 to 16	5.65 ± 0.85	55.20 ± 11.90	–
GIWKKWIKKWLNVLKNLF-NH2 [KU2]	8	16	16	8	5.42 ± 0.49	7.01 ± 0.84	11.38 ± 1.75	5.51 ± 0.44	6.03 ± 0.43	8.89 ± 1.40	99.73	2.77 ± 0.54	8 to 16	7.33 ± 0.73	57.71 ± 9.80	–
GVIDAAKKVVNVLKNLF-NH2 [Uperin 3.6, reference compound]	64	128	64	128	17.14 ± 4.32	23.59 ± 1.18	24.69 ± 6.02	17.60 ± 2.52	17.94 ± 1.96	23.23 ± 2.98	–	–	64 to 128	–	–	% killing (C. albicans SC5314; SC5314, 4 h, 2): > 99.99%; mean log decrease in viable cells (C. albicans SC5314; SC5314, 4 h, 2): 5.54 ± 0.13 log CFU/mL; Haemolytic activity HC10 (human erythrocytes): > 256 mg/L; Haemolytic activity HC50 (human erythrocytes): > 256 mg/L
GVIKAAKKVVNVLKNLF-NH2 [Upn-lys4]	64	128	64	64	15.45 ± 2.64	16.55 ± 0.55	19.98 ± 1.84	14.12 ± 4.35	14.71 ± 4.44	23.64 ± 2.82	99.97	4.12 ± 1.36	–	>256	>256	–
